Measured values as given in US7709636B2, “Pyrazole sulfonylurea compound and herbicide” (Nissan Chemical Industries, Ltd., priority 2004, dated 2010).

Tests used:
Echinochloa crus-galli [1] = test: Herbicidal effect test in submerged condition by treatment before weed-generation (1); format: in vivo; settings: 0.64 g/a, water surface treated on day of sowing, 3 weeks after treatment
From the text: (§1) Herbicidal Effect Test in Submerged Condition by Treatment Before Weed-Generation (1)
(§2) After alluvial soil was placed in a styrol cup of 1/30000 are, water was poured therein and mixed, and adjusted to a submerged condition of water depth 4 cm. After seeds of Echinochloa crus-galli, Scirpus juncoides and Monochoria vaginalis were sown in the cup, rice seedlings at 2.5th leaf stage were transplanted. On the day when the seeds were sown, the wettable powder of the present invention prepared according to Formulation Example 1 was diluted with water so as to give a predetermined formulation amount, and the surface of the water was treated with the diluted wettable powder. The plants were grown by putting the cup in a green house at 25 to 30° C., and investigated on herbicidal effect against each weed 3 weeks after treatment with the herbicide according to the following criteria.
(§3) 5 Herbicidal rate 90% or more (almost complete death)
(§4) 4 Herbicidal rate 70% or more and less than 90%
(§5) 3 Herbicidal rate 40% or more and less than 70%
(§6) 2 Herbicidal rate 20% or more and less than 40%
(§7) 1 Herbicidal rate 5% or more and less than 20%
(§8) 0 Herbicidal rate 5% or less (little effect)

Monochoria vaginalis [2] = test: as above; format: in vivo; settings: 0.64 g/a, water surface treated on day of sowing, 3 weeks after treatment
From the text: as §1, §2, §3, §4, §5, §6, §7, §8

Scirpus juncoides [3] = test: as above; format: in vivo; settings: 0.64 g/a, water surface treated on day of sowing, 3 weeks after treatment
From the text: as §1, §2, §3, §4, §5, §6, §7, §8

Echinochloa crus-galli [4] = test: Herbicidal effect test in submerged condition by treatment during weed-growth stage (1); format: in vivo; settings: 0.64 g/a, treated at 1st to 2nd leaf stage, 3 weeks after treatment
Experimental: (§9) Herbicidal Effect Test in Submerged Condition by Treatment During Weed-Growth Stage (1) After alluvial soil was placed in a styrol cup of 1/30000 are, water was poured therein and mixed, and adjusted to a submerged condition of water depth 4 cm. After seeds of Echinochloa crus-galli, Scirpus juncoides and Monochoria vaginalis were sown in the cup, the plants were grown by putting the cup in a green house at 25 to 30° C. When Echinochloa crus-galli, Scirpus juncoides and Monochoria vaginalis reached 1st to 2nd leaf stage, the wettable powder of the present invention prepared according to Formulation Example 1 was diluted with water so as to give a predetermined formulation amount, and the surface of the water was treated with the diluted wettable powder. The herbicidal effect for each plant was investigated 3 weeks after treatment with the herbicide according to the criteria indicated in Test Example 1.

Monochoria vaginalis [5] = test: as above; format: in vivo; settings: 0.64 g/a, treated at 1st to 2nd leaf stage, 3 weeks after treatment
Experimental: as §9

Scirpus juncoides [6] = test: as above; format: in vivo; settings: 0.64 g/a, treated at 1st to 2nd leaf stage, 3 weeks after treatment
Experimental: as §9

Abutilon avicennae [7] = test: Herbicidal effect test by soil treatment; format: in vivo; settings: 1.6 g/a, 3 weeks after treatment
From the text: (§10) Herbicidal Effect Test by Soil Treatment
(§11) Sterilized diluvial soil was placed in a plastic box having a size of length 21 cm, width 13 cm and depth 7 cm, seeds Echinochloa crus-galli, Digitaria adscendes, Setaria viridis, Avena fatua, Black-grass, Abutilon avicennae, Ambrosia elatior, Amaranthus retroflexus, Chenopodium album, Polygonum blumei, Stellaria media, Zea mays (corn), Glycine max (soybean), Oryza sativa (rice), Triticum aestivum (wheat) and Beta vulgaris (beat) were sown interspatially, covered with about 1.5 cm of soil, and then the wettable powder of the present invention prepared according to Formulation Example 1 was diluted with water so as to give a predetermined formulation amount, and the surface of the soil was uniformly treated with the diluted wettable powder by use of a small-sized spray. The herbicidal effect for each plant was investigated 3 weeks after treatment with the herbicide according to the criteria indicated in Test Example 1.

Amaranthus retroflexus [8] = test: Herbicidal effect test by soil treatment; format: in vivo; settings: 1.6 g/a, 3 weeks after treatment
From the text: as §10, §11

Ambrosia elatior [9] = test: Herbicidal effect test by soil treatment; format: in vivo; settings: 1.6 g/a, 3 weeks after treatment
From the text: as §10, §11

Beta vulgaris (beet) [10] = test: Herbicidal effect test by soil treatment; format: in vivo; settings: 1.6 g/a, 3 weeks after treatment
From the text: as §10, §11

Chenopodium album [11] = test: Herbicidal effect test by soil treatment; format: in vivo; settings: 1.6 g/a, 3 weeks after treatment
From the text: as §10, §11

Digitaria adscendes [12] = test: Herbicidal effect test by soil treatment; format: in vivo; settings: 1.6 g/a, 3 weeks after treatment
From the text: as §10, §11

Echinochloa crus-galli [13] = test: Herbicidal effect test by soil treatment; format: in vivo; settings: 1.6 g/a, 3 weeks after treatment
From the text: as §10, §11

Polygonum blumei [14] = test: Herbicidal effect test by soil treatment; format: in vivo; settings: 1.6 g/a, 3 weeks after treatment
From the text: as §10, §11

Setaria viridis [15] = test: Herbicidal effect test by soil treatment; format: in vivo; settings: 1.6 g/a, 3 weeks after treatment
From the text: as §10, §11

Stellaria media [16] = test: Herbicidal effect test by soil treatment; format: in vivo; settings: 1.6 g/a, 3 weeks after treatment
From the text: as §10, §11

corn (Zea mays) [17] = test: Herbicidal effect test by soil treatment; format: in vivo; settings: 1.6 g/a, 3 weeks after treatment
From the text: as §10, §11

soybean (Glycine max) [18] = test: Herbicidal effect test by soil treatment; format: in vivo; settings: 1.6 g/a, 3 weeks after treatment
From the text: as §10, §11

direct sown rice [19] = test: Herbicidal effect test by soil treatment; format: in vivo, Oryza sativa; settings: 1.6 g/a, 3 weeks after treatment
From the text: as §10, §11

Abutilon avicennae [20] = test: Herbicidal effect test by foliage treatment; format: in vivo; settings: 1.6 g/a; foliage treatment after growth of 14 days; 3 weeks after treatment
From the text: (§12) Herbicidal Effect Test by Foliage Treatment
(§13) Sterilized diluvial soil was placed in a plastic box having a size of length 21 cm, width 13 cm and depth 7 cm, seeds of Echinochloa crus-galli, Digitaria adscendes, Setaria viridis, Avena fatua, Black-grass, Abutilon avicennae, Ambrosia elatior, Amaranthus retroflexus, Chenopodium album, Polygonum blumei, Stellaria media, Zea mays, Glycine max, Oryza sativa, Triticum aestivum and Beta vulgaris were sown interspatially, covered with about 1.5 cm of soil, and then the plants were grown by putting the box in a green house at 25 to 30° C. After growth of 14 days, the wettable powder of the present invention prepared according to Formulation Example 1 was diluted with water so as to give a predetermined formulation amount, and the foliage part was uniformly treated with the diluted wettable powder by use of a small-sized spray. The herbicidal effect for each plant was investigated 3 weeks after treatment with the herbicide according to the criteria indicated in Test Example 1.

Amaranthus retroflexus [21] = test: Herbicidal effect test by foliage treatment; format: in vivo; settings: 1.6 g/a; foliage treatment after growth of 14 days; 3 weeks after treatment
From the text: as §12, §13

Ambrosia elatior [22] = test: Herbicidal effect test by foliage treatment; format: in vivo; settings: 1.6 g/a; foliage treatment after growth of 14 days; 3 weeks after treatment
From the text: as §12, §13

Avena fatua = test: Herbicidal effect test by foliage treatment; format: in vivo; settings: 1.6 g/a; foliage treatment after growth of 14 days; 3 weeks after treatment
From the text: as §12, §13

Beta vulgaris (beet) [23] = test: Herbicidal effect test by foliage treatment; format: in vivo; settings: 1.6 g/a; foliage treatment after growth of 14 days; 3 weeks after treatment
From the text: as §12, §13

Black-grass = test: Herbicidal effect test by foliage treatment; format: in vivo; settings: 1.6 g/a; foliage treatment after growth of 14 days; 3 weeks after treatment
From the text: as §12, §13

Chenopodium album [24] = test: Herbicidal effect test by foliage treatment; format: in vivo; settings: 1.6 g/a; foliage treatment after growth of 14 days; 3 weeks after treatment
From the text: as §12, §13

Digitaria adscendes [25] = test: Herbicidal effect test by foliage treatment; format: in vivo; settings: 1.6 g/a; foliage treatment after growth of 14 days; 3 weeks after treatment
From the text: as §12, §13

Echinochloa crus-galli [26] = test: Herbicidal effect test by foliage treatment; format: in vivo; settings: 1.6 g/a; foliage treatment after growth of 14 days; 3 weeks after treatment
From the text: as §12, §13

Polygonum blumei [27] = test: Herbicidal effect test by foliage treatment; format: in vivo; settings: 1.6 g/a; foliage treatment after growth of 14 days; 3 weeks after treatment
From the text: as §12, §13

Setaria viridis [28] = test: Herbicidal effect test by foliage treatment; format: in vivo; settings: 1.6 g/a; foliage treatment after growth of 14 days; 3 weeks after treatment
From the text: as §12, §13

Stellaria media [29] = test: Herbicidal effect test by foliage treatment; format: in vivo; settings: 1.6 g/a; foliage treatment after growth of 14 days; 3 weeks after treatment
From the text: as §12, §13

[30] = system: Triticum aestivum (wheat); test: Herbicidal effect test by foliage treatment; format: in vivo; settings: 1.6 g/a; foliage treatment after growth of 14 days; 3 weeks after treatment
From the text: as §12, §13

corn (Zea mays) [31] = test: Herbicidal effect test by foliage treatment; format: in vivo; settings: 1.6 g/a; foliage treatment after growth of 14 days; 3 weeks after treatment
From the text: as §12, §13

soybean (Glycine max) [32] = test: Herbicidal effect test by foliage treatment; format: in vivo; settings: 1.6 g/a; foliage treatment after growth of 14 days; 3 weeks after treatment
From the text: as §12, §13

direct sown rice [33] = test: Herbicidal effect test by foliage treatment; format: in vivo, Oryza sativa; settings: 1.6 g/a; foliage treatment after growth of 14 days; 3 weeks after treatment
From the text: as §12, §13

COc1cc(OC)nc(NC(=O)NS(=O)(=O)c2c(C3=NOCC(CI)O3)c(Cl)nn2C)n1 (centres unmarked) [Compound 2, N-((4,6-dimethoxypyrimidin-2-yl)aminocarbonyl)-3-chloro-4-(5-iodomethyl-5H,6H-1,4,2-dioxadin-3-yl)-1-methylpyrazole-5-sulfonamide]
herbicidal effect, A: Echinochloa crus-galli (Echinochloa crus-galli [1]): 4 (Herbicidal rate 70% or more and less than 90%) | herbicidal effect, C: Monochoria vaginalis (Monochoria vaginalis [2]): 5 (Herbicidal rate 90% or more (almost complete death)) | herbicidal effect, B: Scirpus juncoides (Scirpus juncoides [3]): 5 (Herbicidal rate 90% or more (almost complete death)) | herbicidal effect, A: Echinochloa crus-galli (Echinochloa crus-galli [4]): 2 (Herbicidal rate 20% or more and less than 40%) | herbicidal effect, C: Monochoria vaginalis (Monochoria vaginalis [5]): 4 (Herbicidal rate 70% or more and less than 90%) | herbicidal effect, B: Scirpus juncoides (Scirpus juncoides [6]): 4 (Herbicidal rate 70% or more and less than 90%) | herbicidal effect, H: Abutilon avicennae (Abutilon avicennae [7]): 0 (Herbicidal rate 5% or less (little effect)) | herbicidal effect, J: Amaranthus retroflexus (Amaranthus retroflexus [8]): 1 (Herbicidal rate 5% or more and less than 20%) | herbicidal effect, I: Ambrosia elatior (Ambrosia elatior [9]): 3 (Herbicidal rate 40% or more and less than 70%) | herbicidal effect, f: Beta vulgaris (beet) (Beta vulgaris (beet) [10]): 2 (Herbicidal rate 20% or more and less than 40%) | herbicidal effect, K: Chenopodium album (Chenopodium album [11]): 4 (Herbicidal rate 70% or more and less than 90%) | herbicidal effect, D: Digitaria adscendes (Digitaria adscendes [12]): 0 (Herbicidal rate 5% or less (little effect)) | herbicidal effect, A: Echinochloa crus-galli (Echinochloa crus-galli [13]): 0 (Herbicidal rate 5% or less (little effect)) | herbicidal effect, L: Polygonum blumei (Polygonum blumei [14]): 0 (Herbicidal rate 5% or less (little effect)) | herbicidal effect, E: Setaria viridis (Setaria viridis [15]): 0 (Herbicidal rate 5% or less (little effect)) | herbicidal effect, M: Stellaria media (Stellaria media [16]): 3 (Herbicidal rate 40% or more and less than 70%) | herbicidal effect, b: corn (Zea mays) (corn (Zea mays) [17]): 0 (Herbicidal rate 5% or less (little effect)) | herbicidal effect, c: soybean (Glycine max) (soybean (Glycine max) [18]): 0 (Herbicidal rate 5% or less (little effect)) | herbicidal effect, d: direct sown rice (direct sown rice [19]): 0 (Herbicidal rate 5% or less (little effect)) | herbicidal effect, H: Abutilon avicennae (Abutilon avicennae [20]): 5 (Herbicidal rate 90% or more (almost complete death)) | herbicidal effect, J: Amaranthus retroflexus (Amaranthus retroflexus [21]): 0 (Herbicidal rate 5% or less (little effect)) | herbicidal effect, I: Ambrosia elatior (Ambrosia elatior [22]): 4 (Herbicidal rate 70% or more and less than 90%) | herbicidal effect, F: Avena fatua (Avena fatua): 0 (Herbicidal rate 5% or less (little effect)) | herbicidal effect, f: Beta vulgaris (beet) (Beta vulgaris (beet) [23]): 4 (Herbicidal rate 70% or more and less than 90%) | herbicidal effect, G: Black-grass (Black-grass): 1 (Herbicidal rate 5% or more and less than 20%) | herbicidal effect, K: Chenopodium album (Chenopodium album [24]): 4 (Herbicidal rate 70% or more and less than 90%) | herbicidal effect, D: Digitaria adscendes (Digitaria adscendes [25]): 1 (Herbicidal rate 5% or more and less than 20%) | herbicidal effect, A: Echinochloa crus-galli (Echinochloa crus-galli [26]): 3 (Herbicidal rate 40% or more and less than 70%) | herbicidal effect, L: Polygonum blumei (Polygonum blumei [27]): 0 (Herbicidal rate 5% or less (little effect)) | herbicidal effect, E: Setaria viridis (Setaria viridis [28]): 1 (Herbicidal rate 5% or more and less than 20%) | herbicidal effect, M: Stellaria media (Stellaria media [29]): 5 (Herbicidal rate 90% or more (almost complete death)) | herbicidal effect, e: Triticum aestivum (wheat) [30]: 0 (Herbicidal rate 5% or less (little effect)) | herbicidal effect, b: corn (Zea mays) (corn (Zea mays) [31]): 4 (Herbicidal rate 70% or more and less than 90%) | herbicidal effect, c: soybean (Glycine max) (soybean (Glycine max) [32]): 4 (Herbicidal rate 70% or more and less than 90%) | herbicidal effect, d: direct sown rice (direct sown rice [33]): 0 (Herbicidal rate 5% or less (little effect))
